# PubChem BioAssay (NCI)
#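 Exposure lasted 48 hours, with cells grown in 96-well plates and compounds tested at five concentrations. TGI: total growth inhibition.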
# What was measured:
# Assay in all cases: DTP human tumour cell line panel, 48 h
# 786-0 renal = test system: 786-0 renal
# A549 NSCLC = test system: A549 NSCLC
# ACHN renal = test system: ACHN renal
# BT-549 breast = test system: BT-549 breast
# CAKI-1 renal = test system: CAKI-1 renal
# CCRF-CEM leukemia = test system: CCRF-CEM leukemia
# COLO 205 colon = test system: COLO 205 colon
# DU-145 prostate = test system: DU-145 prostate
# EKVX NSCLC = test system: EKVX NSCLC
# HCC-2998 colon = test system: HCC-2998 colon
# HCT-116 colon = test system: HCT-116 colon
# HCT-15 colon = test system: HCT-15 colon
# HOP-62 NSCLC = test system: HOP-62 NSCLC
# HOP-92 NSCLC = test system: HOP-92 NSCLC
# HS 578T breast = test system: HS 578T breast
# HT29 colon = test system: HT29 colon
# IGROV1 ovarian = test system: IGROV1 ovarian
# K-562 leukemia = test system: K-562 leukemia
# KM12 colon = test system: KM12 colon
# LOX IMVI melanoma = test system: LOX IMVI melanoma
# M14 melanoma = test system: M14 melanoma
# MALME-3M melanoma = test system: MALME-3M melanoma
# MCF7 breast = test system: MCF7 breast
# MDA-MB-231 breast = test system: MDA-MB-231 breast
# MDA-MB-435 = test system: MDA-MB-435
# MDA-N = test system: MDA-N
# MOLT-4 leukemia = test system: MOLT-4 leukemia
# NCI-H226 lung = test system: NCI-H226 lung
# NCI-H23 lung = test system: NCI-H23 lung
# NCI-H460 lung = test system: NCI-H460 lung
# NCI-H522 lung = test system: NCI-H522 lung
# NCI/ADR-RES ovarian = test system: NCI/ADR-RES ovarian
# OVCAR-3 ovarian = test system: OVCAR-3 ovarian
# OVCAR-5 ovarian = test system: OVCAR-5 ovarian
# OVCAR-8 ovarian = test system: OVCAR-8 ovarian
# PC-3 prostate = test system: PC-3 prostate
# RPMI-8226 leukemia = test system: RPMI-8226 leukemia
# RXF 393 renal = test system: RXF 393 renal
# SF-268 CNS = test system: SF-268 CNS
# SF-295 CNS = test system: SF-295 CNS
# SK-MEL-2 melanoma = test system: SK-MEL-2 melanoma
# SK-MEL-28 melanoma = test system: SK-MEL-28 melanoma
# SK-MEL-5 melanoma = test system: SK-MEL-5 melanoma
# SK-OV-3 ovarian = test system: SK-OV-3 ovarian
# SN12C renal = test system: SN12C renal
# SNB-19 CNS = test system: SNB-19 CNS
# SNB-75 CNS = test system: SNB-75 CNS
# SR leukemia = test system: SR leukemia
# SW-620 colon = test system: SW-620 colon
# TK-10 renal = test system: TK-10 renal
# U251 CNS = test system: U251 CNS
# UACC-257 melanoma = test system: UACC-257 melanoma
# UACC-62 melanoma = test system: UACC-62 melanoma
# UO-31 renal = test system: UO-31 renal
# A498 renal = test system: A498 renal
# HL-60(TB) leukemia = test system: HL-60(TB) leukemia
# OVCAR-4 ovarian = test system: OVCAR-4 ovarian
# SF-539 CNS = test system: SF-539 CNS
# T-47D breast = test system: T-47D breast
smiles,measurement,setting,value
O=C1C(c2c(O)[nH]c3ccc(F)cc23)=Nc2ccccc21,TGI,786-0 renal,> 100 µM
same,TGI,A549 NSCLC,> 100 µM
same,TGI,ACHN renal,> 100 µM
same,TGI,BT-549 breast,> 100 µM
same,TGI,CAKI-1 renal,> 100 µM
same,TGI,CCRF-CEM leukemia,> 100 µM
same,TGI,COLO 205 colon,> 100 µM
same,TGI,DU-145 prostate,> 100 µM
same,TGI,EKVX NSCLC,> 100 µM
same,TGI,HCC-2998 colon,> 100 µM
same,TGI,HCT-116 colon,> 100 µM
same,TGI,HCT-15 colon,> 100 µM
same,TGI,HOP-62 NSCLC,> 100 µM
same,TGI,HOP-92 NSCLC,65.6 µM
same,TGI,HS 578T breast,> 100 µM
same,TGI,HT29 colon,> 100 µM
same,TGI,IGROV1 ovarian,> 100 µM
same,TGI,K-562 leukemia,> 100 µM
same,TGI,KM12 colon,> 100 µM
same,TGI,LOX IMVI melanoma,> 100 µM
same,TGI,M14 melanoma,> 100 µM
same,TGI,MALME-3M melanoma,> 100 µM
same,TGI,MCF7 breast,> 100 µM
same,TGI,MDA-MB-231 breast,54.6 µM
same,TGI,MDA-MB-435,> 100 µM
same,TGI,MDA-N,> 100 µM
same,TGI,MOLT-4 leukemia,81.5 µM
same,TGI,NCI-H226 lung,> 100 µM
same,TGI,NCI-H23 lung,> 100 µM
same,TGI,NCI-H460 lung,> 100 µM
same,TGI,NCI-H522 lung,> 100 µM
same,TGI,NCI/ADR-RES ovarian,> 100 µM
same,TGI,OVCAR-3 ovarian,> 100 µM
same,TGI,OVCAR-5 ovarian,> 100 µM
same,TGI,OVCAR-8 ovarian,43.8 µM
same,TGI,PC-3 prostate,> 100 µM
same,TGI,RPMI-8226 leukemia,> 100 µM
same,TGI,RXF 393 renal,9.77 µM
same,TGI,SF-268 CNS,> 100 µM
same,TGI,SF-295 CNS,> 100 µM
same,TGI,SK-MEL-2 melanoma,> 100 µM
same,TGI,SK-MEL-28 melanoma,> 100 µM
same,TGI,SK-MEL-5 melanoma,> 100 µM
same,TGI,SK-OV-3 ovarian,24.9 µM
same,TGI,SN12C renal,> 100 µM
same,TGI,SNB-19 CNS,> 100 µM
same,TGI,SNB-75 CNS,15.1 µM
same,TGI,SR leukemia,> 100 µM
same,TGI,SW-620 colon,> 100 µM
same,TGI,TK-10 renal,> 100 µM
same,TGI,U251 CNS,42.7 µM
same,TGI,UACC-257 melanoma,> 100 µM
same,TGI,UACC-62 melanoma,> 100 µM
same,TGI,UO-31 renal,> 100 µM
CN(CC(=O)O)c1ncc2c(n1)CCCC2,TGI,786-0 renal,> 100 µM
same,TGI,A498 renal,> 100 µM
same,TGI,A549 NSCLC,> 100 µM
same,TGI,ACHN renal,> 100 µM
same,TGI,CAKI-1 renal,> 100 µM
same,TGI,CCRF-CEM leukemia,> 100 µM
same,TGI,COLO 205 colon,> 100 µM
same,TGI,DU-145 prostate,> 100 µM
same,TGI,EKVX NSCLC,> 100 µM
same,TGI,HCT-116 colon,> 100 µM
same,TGI,HCT-15 colon,> 100 µM
same,TGI,HL-60(TB) leukemia,> 100 µM
same,TGI,HOP-62 NSCLC,> 100 µM
same,TGI,HOP-92 NSCLC,> 100 µM
same,TGI,HS 578T breast,> 100 µM
same,TGI,HT29 colon,> 100 µM
same,TGI,IGROV1 ovarian,> 100 µM
same,TGI,K-562 leukemia,> 100 µM
same,TGI,KM12 colon,> 100 µM
same,TGI,LOX IMVI melanoma,> 100 µM
same,TGI,M14 melanoma,> 100 µM
same,TGI,MALME-3M melanoma,> 100 µM
same,TGI,MCF7 breast,> 100 µM
same,TGI,MDA-MB-231 breast,> 100 µM
same,TGI,MDA-MB-435,> 100 µM
same,TGI,MDA-N,> 100 µM
same,TGI,MOLT-4 leukemia,> 100 µM
same,TGI,NCI-H226 lung,> 100 µM
same,TGI,NCI-H23 lung,> 100 µM
same,TGI,NCI-H460 lung,> 100 µM
same,TGI,NCI-H522 lung,> 100 µM
same,TGI,NCI/ADR-RES ovarian,> 100 µM
same,TGI,OVCAR-3 ovarian,> 100 µM
same,TGI,OVCAR-4 ovarian,> 100 µM
same,TGI,OVCAR-5 ovarian,> 100 µM
same,TGI,OVCAR-8 ovarian,> 100 µM
same,TGI,PC-3 prostate,> 100 µM
same,TGI,RPMI-8226 leukemia,> 100 µM
same,TGI,RXF 393 renal,> 100 µM
same,TGI,SF-268 CNS,> 100 µM
same,TGI,SF-295 CNS,> 100 µM
same,TGI,SF-539 CNS,> 100 µM
same,TGI,SK-MEL-2 melanoma,> 100 µM
same,TGI,SK-MEL-28 melanoma,> 100 µM
same,TGI,SK-MEL-5 melanoma,> 100 µM
same,TGI,SK-OV-3 ovarian,> 100 µM
same,TGI,SN12C renal,> 100 µM
same,TGI,SNB-19 CNS,> 100 µM
same,TGI,SNB-75 CNS,> 100 µM
same,TGI,SR leukemia,> 100 µM
same,TGI,SW-620 colon,> 100 µM
same,TGI,TK-10 renal,> 100 µM
same,TGI,U251 CNS,> 100 µM
same,TGI,UACC-257 melanoma,> 100 µM
same,TGI,UACC-62 melanoma,> 100 µM
same,TGI,UO-31 renal,> 100 µM
O=[N+]([O-])/C(C(Cl)=C(Cl)Cl)=C(/Cl)Sc1ccccc1,TGI,786-0 renal,2.62 µM
same,TGI,A498 renal,4.19 µM
same,TGI,A549 NSCLC,13.5 µM
same,TGI,ACHN renal,3.93 µM
same,TGI,CAKI-1 renal,6.57 µM
same,TGI,CCRF-CEM leukemia,0.435 µM
same,TGI,COLO 205 colon,2.75 µM
same,TGI,DU-145 prostate,11.2 µM
same,TGI,EKVX NSCLC,33.4 µM
same,TGI,HCC-2998 colon,5.7 µM
same,TGI,HCT-116 colon,2.58 µM
same,TGI,HCT-15 colon,4.85 µM
same,TGI,HL-60(TB) leukemia,0.318 µM
same,TGI,HOP-62 NSCLC,9.33 µM
same,TGI,HOP-92 NSCLC,3.85 µM
same,TGI,HS 578T breast,7.14 µM
same,TGI,HT29 colon,6.12 µM
same,TGI,IGROV1 ovarian,4.69 µM
same,TGI,K-562 leukemia,2.4 µM
same,TGI,KM12 colon,32 µM
same,TGI,LOX IMVI melanoma,3.65 µM
same,TGI,M14 melanoma,3.24 µM
same,TGI,MALME-3M melanoma,3.03 µM
same,TGI,MCF7 breast,2.99 µM
same,TGI,MDA-MB-231 breast,3.4 µM
same,TGI,MDA-MB-435,3.29 µM
same,TGI,MDA-N,3.78 µM
same,TGI,MOLT-4 leukemia,1.23 µM
same,TGI,NCI-H226 lung,24.3 µM
same,TGI,NCI-H23 lung,4.1 µM
same,TGI,NCI-H460 lung,34.6 µM
same,TGI,NCI-H522 lung,4.42 µM
same,TGI,NCI/ADR-RES ovarian,2.35 µM
same,TGI,OVCAR-3 ovarian,3.61 µM
same,TGI,OVCAR-4 ovarian,3.75 µM
same,TGI,OVCAR-5 ovarian,3.9 µM
same,TGI,OVCAR-8 ovarian,0.786 µM
same,TGI,PC-3 prostate,4.66 µM
same,TGI,RPMI-8226 leukemia,1.15 µM
same,TGI,RXF 393 renal,9.86 µM
same,TGI,SF-268 CNS,5.71 µM
same,TGI,SF-295 CNS,37.6 µM
same,TGI,SF-539 CNS,3.78 µM
same,TGI,SK-MEL-2 melanoma,27.4 µM
same,TGI,SK-MEL-28 melanoma,3.28 µM
same,TGI,SK-MEL-5 melanoma,4.47 µM
same,TGI,SK-OV-3 ovarian,34.3 µM
same,TGI,SN12C renal,3.55 µM
same,TGI,SNB-19 CNS,36 µM
same,TGI,SNB-75 CNS,28.8 µM
same,TGI,SR leukemia,2.38 µM
same,TGI,SW-620 colon,1.07 µM
same,TGI,T-47D breast,7.47 µM
same,TGI,TK-10 renal,5.9 µM
same,TGI,U251 CNS,5.04 µM
same,TGI,UACC-257 melanoma,2.55 µM
same,TGI,UACC-62 melanoma,3.36 µM
same,TGI,UO-31 renal,3.02 µM
CC(C)C(=O)OCC1OC(n2c(Br)nc3c(=O)[nH]c(N)nc32)C(OC(=O)C(C)C)C1OC(=O)C(C)C (centres undefined),TGI,786-0 renal,65.3 µM
same,TGI,A549 NSCLC,> 100 µM
same,TGI,ACHN renal,> 100 µM
same,TGI,BT-549 breast,> 100 µM
same,TGI,COLO 205 colon,> 100 µM
same,TGI,DU-145 prostate,> 100 µM
same,TGI,EKVX NSCLC,> 100 µM
same,TGI,HCT-116 colon,> 100 µM
same,TGI,HCT-15 colon,> 100 µM
same,TGI,HOP-62 NSCLC,> 100 µM
same,TGI,HOP-92 NSCLC,> 100 µM
same,TGI,HS 578T breast,> 100 µM
same,TGI,HT29 colon,40.3 µM
same,TGI,LOX IMVI melanoma,55.5 µM
same,TGI,M14 melanoma,> 100 µM
same,TGI,MALME-3M melanoma,> 100 µM
same,TGI,MCF7 breast,> 100 µM
same,TGI,MDA-MB-231 breast,> 100 µM
same,TGI,MDA-N,> 100 µM
same,TGI,MOLT-4 leukemia,48.2 µM
same,TGI,NCI-H226 lung,> 100 µM
same,TGI,NCI-H460 lung,58 µM
same,TGI,NCI-H522 lung,> 100 µM
same,TGI,NCI/ADR-RES ovarian,> 100 µM
same,TGI,OVCAR-3 ovarian,> 100 µM
same,TGI,OVCAR-5 ovarian,> 100 µM
same,TGI,OVCAR-8 ovarian,> 100 µM
same,TGI,PC-3 prostate,62.9 µM
same,TGI,SF-268 CNS,> 100 µM
same,TGI,SF-295 CNS,56.7 µM
same,TGI,SK-MEL-2 melanoma,> 100 µM
same,TGI,SK-OV-3 ovarian,> 100 µM
same,TGI,SN12C renal,> 100 µM
same,TGI,SNB-19 CNS,> 100 µM
same,TGI,SNB-75 CNS,> 100 µM
same,TGI,SR leukemia,> 100 µM
same,TGI,SW-620 colon,> 100 µM
same,TGI,T-47D breast,> 100 µM
same,TGI,UACC-257 melanoma,> 100 µM
same,TGI,UACC-62 melanoma,> 100 µM
same,TGI,UO-31 renal,> 100 µM
